Results: patent publication US6380387B1, “4-Pyrimidinyl-n-acyl-l phenylalanines” (Hoffmann-La Roche Inc., priority 1999, dated 2002)

Key:
VLA-4 (α4β1 integrin) [1] = target: T1, VLA-4 (α4β1 integrin) (Homo sapiens, UniProt P05556+P13612); assay: VLA-4/VCAM-1 Screening Assay (solid-phase dual antibody ELISA); conditions: Ramos cell-derived VLA-4 binding to immobilized recombinant human VCAM-1
T1 construct: Ramos cells bearing cell-surface VLA-4; endogenous in cells; host or cells: Ramos cells
Experimental: VLA-4/VCAM-1 Screening Assay
VLA-4 antagonist activity, defined as ability to compete for binding to immobilized VCAM-1, was quantitated using a solid-phase, dual antibody ELISA. VLA-4 (α4β1 integrin) bound to VCAM-1 was detected by a complex of anti-integrin β1 antibody: HRP-conjugated anti-mouse IgG: chromogenic substrate (K-Blue). Initially, this entailed coating 96 well plates (Nunc Maxisorp) with recombinant human VCAM-1 (0.4 μg in 100 μl PBS), sealing each plate and then allowing the plates to stand at 4° C. for ˜18 hr. […] On the day of assay, all plates were washed twice with VCAM Assay Buffer (200 μl/well of 50 mM Tris-HCl, 100 mM NaCl, 1 mM MnCl2, 0.05% Tween 20; pH 7.4). Test compounds were dissolved in 100% DMSO and then diluted 1:20 in VCAM Assay Buffer supplemented with 1 mg/mL BSA (i.e., final DMSO=5%). A series of 1:4 dilutions were performed to achieve a concentration range of 0.005 nM-1.563 μM for each test compound. 100 μl per well of each dilution was added to the VCAM-coated plates, followed by 10 μl of Ramos cell-derived VLA-4. These plates were sequentially mixed on a platform shaker for 1 min, incubated for 2 hr at 37° C., and then washed four times with 200 μl/well VCAM Assay Buffer. 100 μl of mouse anti-human integrin β1 antibody was added to each well (0.6 μg/mL in VCAM Assay Buffer+1 mg/mL BSA) and allowed to incubate for 1 hr at 37° C. At the conclusion of this incubation period, all plates were washed four times with VCAM Assay Buffer (200 μl/well). A corresponding second antibody, HRP-conjugated goat anti-mouse IgG (100 μl per well @ 1:800 dilution in VCAM Assay Buffer+1 mg/mL BSA), was then added to each well, followed by a 1 hr incubation at room temperature and concluded by three washes (200 μl/well) with VCAM Assay Buffer. Color development was initiated by addition of 100 μl K-Blue per well (15 min incubation, room temp) and terminated by addition of 100 μl Red Stop Buffer per well. All plates were then read in a UV/Vis spectrophotometer at […]. Results were calculated as % inhibition of total binding (i.e., VLA-4+VCAM-1 in the absence of test compound). The results are provided in the following Table I (A=IC50<1 nM, B=IC50<10 nM): […]

VLA-4 (α4β1 integrin) [2] = target: T1, VLA-4 (α4β1 integrin); assay: Ramos (VLA-4)/VCAM-1 Cell-Based Screening Assay (cell adhesion); conditions: Calcein-AM labeled Ramos cells adhering to immobilized recombinant human VCAM-1
Experimental: Ramos (VLA-4)/VCAM-1 Cell-Based Screening Assay Protocol
Soluble recombinant human VCAM-1 (mixture of 5- and 7-Ig domain) was purified from CHO cell culture media by inmmunoaffinity chromatography and maintained in a solution containing 0.1 M Tris-glycine (pH 7.5), 0.1 M NaCl, 5 mM EDTA, 1 mM PMSF, […] NaN3 and 10 μg/mL leupeptin. Calcein-AM was purchased from Molecular Probes Inc.
VLA-4 (α4β1 integrin) antagonist activity, defined as ability to compete with cell-surface VLA-4 for binding to immobilized VCAM-1, was quantitated using a Ramos-VCAM-1 cell adhesion assay. Ramos cells bearing cell-surface VLA-4, were labeled with a fluorescent dye (Calcein-AM) and allowed to bind VCAM-1 in the presence or absence of test compounds. A reduction in fluorescence intensity associated with adherent cells (% inhibition) reflected competitive inhibition of VLA-4 mediated cell adhesion by the test compound.
Initially, this entailed coating 96 well plates (Nunc Maxisorp) with recombinant human VCAM-1 (100 ng in 100 μl PBS), sealing each plate and allowing the plates to stand at 4° C. for ≈18 hr. The VCAM-coated plates were subsequently washed twice with 0.05% Tween-20 in PBS, and then blocked for 1 hr (room temperature) with 200 μl of Blocking Buffer (1% BSA/0.02% thimerosal) to reduce non-specific binding. Following the incubation with Blocking Buffer, plates were inverted, blotted and the remaining buffer aspirated. Each plate was then washed with 300 μl PBS, inverted and the remaining PBS aspirated.
Test compounds were dissolved in 100% DMSO and then diluted 1:25 in VCAM Cell Adhesion Assay Buffer (4 mM CaCl2, 4 mM MgCl2 in 50 mM TRIS-HCl, pH 7.5) (final DMSO=4%). A series of eight 1:4 dilutions were performed for each compound (general concentration range of 1 nM-12,500 nM). 100 μl/well of each dilution was added to the VCAM-coated plates, followed by 100 μl of Ramos cells (200,000 cells/well in 1% BSA/PBS). Plates containing test compounds and Ramos cells were allowed to incubate for 45 min at room temperature, after which 165 μl/well PBS was added. Plates were inverted to remove non-adherent cells, blotted and 300 μl/well PBS added. Plates were again inverted, blotted and the remaining buffer gently aspirated. 100 μl Lysis Buffer (0.1% SDS in 50 mM TRIS-HCl, pH 8.5) was added to each well and agitated for 2 min on a rotary shaking platform. The plates were then read for fluorescence intensity on a Cytofluor 2300 (Millipore) fluorecence measurement system (excitation=485 nm, emission=530 nm). The results are shown in the following Table II, where (A=IC50<100 nM, B=IC50<10000 nM): […]

T1 sequence (P13612 34-1032): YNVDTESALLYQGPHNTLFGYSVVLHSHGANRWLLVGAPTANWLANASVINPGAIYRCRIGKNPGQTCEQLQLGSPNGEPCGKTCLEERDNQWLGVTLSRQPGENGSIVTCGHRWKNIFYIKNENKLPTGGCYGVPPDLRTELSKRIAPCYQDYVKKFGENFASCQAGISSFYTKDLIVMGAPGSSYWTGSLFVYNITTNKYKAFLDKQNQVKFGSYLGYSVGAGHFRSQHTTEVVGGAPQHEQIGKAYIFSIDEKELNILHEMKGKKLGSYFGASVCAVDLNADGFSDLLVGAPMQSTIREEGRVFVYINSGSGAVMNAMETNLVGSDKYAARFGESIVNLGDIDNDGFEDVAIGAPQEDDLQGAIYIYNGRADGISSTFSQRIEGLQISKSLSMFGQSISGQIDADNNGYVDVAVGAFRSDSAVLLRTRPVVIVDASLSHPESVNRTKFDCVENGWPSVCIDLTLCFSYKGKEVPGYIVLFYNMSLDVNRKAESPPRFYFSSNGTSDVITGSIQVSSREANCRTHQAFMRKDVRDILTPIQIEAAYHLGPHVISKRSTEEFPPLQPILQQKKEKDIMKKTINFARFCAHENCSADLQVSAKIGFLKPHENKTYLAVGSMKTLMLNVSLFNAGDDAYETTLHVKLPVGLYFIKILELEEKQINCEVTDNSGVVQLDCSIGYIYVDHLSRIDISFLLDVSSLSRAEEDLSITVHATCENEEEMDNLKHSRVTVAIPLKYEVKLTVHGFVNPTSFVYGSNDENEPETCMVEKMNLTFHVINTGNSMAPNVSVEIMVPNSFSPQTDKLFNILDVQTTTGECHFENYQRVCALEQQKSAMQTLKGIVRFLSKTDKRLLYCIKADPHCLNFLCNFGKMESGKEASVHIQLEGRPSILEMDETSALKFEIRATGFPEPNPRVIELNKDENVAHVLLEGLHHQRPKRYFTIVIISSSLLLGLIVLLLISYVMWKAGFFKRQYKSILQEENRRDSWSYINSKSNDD
T1 sequence (P05556 21-798): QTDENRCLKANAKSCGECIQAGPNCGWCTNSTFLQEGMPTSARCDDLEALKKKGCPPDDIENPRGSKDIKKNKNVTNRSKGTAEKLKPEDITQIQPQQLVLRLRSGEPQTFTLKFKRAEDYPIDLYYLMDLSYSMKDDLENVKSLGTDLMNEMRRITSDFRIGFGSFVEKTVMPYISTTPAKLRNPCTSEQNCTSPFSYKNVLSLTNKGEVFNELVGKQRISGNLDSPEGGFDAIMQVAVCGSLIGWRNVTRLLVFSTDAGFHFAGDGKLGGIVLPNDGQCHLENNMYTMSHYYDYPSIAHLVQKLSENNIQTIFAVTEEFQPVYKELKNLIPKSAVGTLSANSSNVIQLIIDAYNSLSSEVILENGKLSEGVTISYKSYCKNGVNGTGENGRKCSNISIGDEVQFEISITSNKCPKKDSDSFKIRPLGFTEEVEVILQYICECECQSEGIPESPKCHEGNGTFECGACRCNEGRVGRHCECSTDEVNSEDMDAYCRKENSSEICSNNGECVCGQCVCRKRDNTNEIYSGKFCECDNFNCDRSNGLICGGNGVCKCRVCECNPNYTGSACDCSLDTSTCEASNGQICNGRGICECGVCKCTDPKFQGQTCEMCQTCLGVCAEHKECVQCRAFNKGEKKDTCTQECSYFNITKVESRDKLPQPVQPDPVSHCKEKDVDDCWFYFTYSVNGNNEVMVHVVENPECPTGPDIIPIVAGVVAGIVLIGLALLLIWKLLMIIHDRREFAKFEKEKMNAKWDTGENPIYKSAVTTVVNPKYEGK

melting point	IC50 (VLA-4 (α4β1 integrin) [1])	IC50 (VLA-4 (α4β1 integrin) [2])	Structure (SMILES)
205 to 209 °C			Cc1c(-c2ccc(C[C@H](NC(=O)c3c(Cl)cccc3C(C)C)C(=O)O)cc2)c(=O)n(C)c(=O)n1C [Example 17, N-[[2-chloro-6-(2-methylethyl)phenyl]carbonyl]-4-(1,3,6-trimethyl-2,4-dioxo-5-pyrimidinyl)-L-phenylalanine]
	< 10 nM	< 100 nM	COCCC1(C(=O)N[C@@H](Cc2ccc(-c3cn(C)c(=O)n(C)c3=O)cc2)C(=O)O)CCCC1 [Example 3, 4-[(1,3-dimethyl-2,4-dioxo-5-pyrimidinyl)]-N-[[1-(2-methoxyethyl)cyclopentyl]carbonyl]-L-phenylalanine]
		< 100 nM	CCN(CC)CCOC(=O)[C@H](Cc1ccc(-c2c(C)n(C)c(=O)n(C)c2=O)cc1)NC(=O)c1c(C)cccc1Cl [Example 29, N-[(2-chloro-6-methylphenyl)carbonyl]-4-(1,3,6-trimethyl-2,4-dioxo-5-pyrimidinyl)-L-phenylalanine 2-[(N,N-diethyl)amino]ethyl ester]
		< 10000 nM	Cc1cccc(Cl)c1C(=O)N[C@@H](Cc1ccc(-c2c(C)n(C)c(=O)n(C)c2=O)cc1)C(=O)OCCN1CCOCC1 [Example 32, N-[(2-chloro-6-methylphenyl)carbonyl]-4-(1,3,6-trimethyl-2,4-dioxo-5-pyrimidinyl)-L-phenylalanine 2-(4-morpholino)ethyl ester]
		< 10000 nM	CCOC(=O)[C@H](Cc1ccc(-c2c(C)n(C)c(=O)n(C)c2=O)cc1)NC(=O)c1c(C)cccc1Cl [Example 30, N-[(2-chloro-6-methylphenyl)carbonyl]-4-(1,3,6-trimethyl-2,4-dioxo-5-pyrimidinyl)-L-phenylalanine ethyl ester]
90 to 94 °C		< 10000 nM	Cc1c(-c2ccc(C[C@H](NC(=O)c3c(Cl)cccc3Cl)C(=O)OCCN3CCOCC3)cc2)c(=O)n(C)c(=O)n1C [Example 31, N-[(2,6-dichlorophenyl)carbonyl]-4-(1,3,6-trimethyl-2,4-dioxo-5-pyrimidinyl)-L-phenylalanine 2-(4-morpholino)ethyl ester]
	< 1 nM	< 10000 nM	COc1ccc(Br)c(C(=O)N[C@@H](Cc2ccc(-c3cn(C)c(=O)n(C)c3=O)cc2)C(=O)O)c1 [Example 5, N-[(2-bromo-5-methoxyphenyl)carbonyl]-4-[1,3-dimethyl-2,4-dioxo-5-pyrimidinyl]-L-phenylalanine]
234 to 236 °C	< 1 nM	< 100 nM	Cc1cccc(Cl)c1C(=O)N[C@@H](Cc1ccc(-c2cn(C)c(=O)n(C)c2=O)cc1)C(=O)O [Example 2, N-[(2-chloro-6-methylphenyl)carbonyl]-4-(1,3-dimethyl-2,4-dioxo-5-pyrimidinyl)-L-phenylalanine]
		< 100 nM	CCN(CC)CCOC(=O)[C@H](Cc1ccc(-c2c(C)n(C)c(=O)n(C)c2=O)cc1)NC(=O)c1c(Cl)cccc1Cl [Example 28, N-[(2,6-dichlorophenyl)carbonyl]-4-(1,3,6-trimethyl-2,4-dioxo-5-pyrimidinyl)-L-phenylalanine 2-[(N,N-diethyl)amino]ethyl ester]
	< 1 nM	< 100 nM	Cc1cccc(Br)c1C(=O)N[C@@H](Cc1ccc(-c2cn(C)c(=O)n(C)c2=O)cc1)C(=O)O [Example 4, N-[(2-bromo-6-methylphenyl)carbonyl]-4-(1,3-dimethyl-2,4-dioxo-5-pyrimidinyl)-L-phenylalanine]
		< 100 nM	Cc1c(-c2ccc(C[C@H](NC(=O)[C@@H]3CCCN3)C(=O)O)cc2)c(=O)n(C)c(=O)n1C [Example 35, L-prolyl-4-(1,3,6-trimethyl-2,4-dioxo-5-pyrimidinyl)-L-phenylalanine]

Structure (SMILES)	melting point	IC50 (VLA-4 (α4β1 integrin) [1])	IC50 (VLA-4 (α4β1 integrin) [2])
CC(=O)OC(C)OC(=O)[C@H](Cc1ccc(-c2c(C)n(C)c(=O)n(C)c2=O)cc1)NC(=O)c1c(Cl)cccc1Cl (stereo partly drawn) [Example 33, N-[(2,6-dichlorophenyl)carbonyl]-4-(1,3,6-trimethyl-2,4-dioxo-5-pyrimidinyl)-L-phenylalanine 1-(acetoxy)ethyl ester]	168 to 170 °C		< 10000 nM
CC(=O)OC(C)OC(=O)[C@H](Cc1ccc(-c2c(C)n(C)c(=O)n(C)c2=O)cc1)NC(=O)c1c(C)cccc1Cl (stereo partly drawn) [Example 34, N-[(2-chloro-6-methylphenyl)carbonyl]-4-(1,3,6-trimethyl-2,4-dioxo-5-pyrimidinyl)-L-phenylalanine 1-(acetoxy)ethyl ester]	84 to 88 °C		< 10000 nM
